In patent US10182981B2, “Method of regulating a skin condition” (priority 2015, dated 2019):

Test system: IL-18
Test: Evaluation of skin sensitization potential (IL-18 production in HEK)
Type: cell-based, human
Conditions: HEK lysate, 16 h
From the text: It is possible for a material to not be cytotoxic, and yet be unsafe due to provoking an allergic reaction upon skin contact. Typically, initial exposure to an allergen sensitizes the immune system, and following exposures cause an allergic response. Recent progress in understanding the mechanisms of skin sensitization identified interleukin-18 (IL-18) production in normal human epidermal keratinocytes (HEK) as a useful biomarker for skin contact sensitization (Corsini, et al., “Use of IL-18 Production In a Human Keratinocyte Cell Line to Discriminate Contact Sensitizers from Irritants and Low Molecular Weight Respiratory Allergens.” Toxicol In Vitro. 2009 August; 23(5):789-96; Teunis, et al., “Transfer of a Two-tiered Keratinocyte Assay: IL-18 Production by NCTC2544 to Determine the Skin Sensitizing Capacity and Epidermal Equivalent Assay to Determine Sensitizer Potency.” Toxicol In Vitro. 2013 April; 27(3):1135-50). […] Thus, IL-18 production in HEK was evaluated to determine sensitization potential.
Normal human adult epidermal keratinocytes (HEK) were cultured as described above for the cytoxicity evaluation. […] The cell lysates were collected, and IL-18 was quantified using Human IL-18 ELISA Kit (Catalog #7620, produced by MBL International Co., Woburn, Mass., USA). […] Fold changes of IL-18 levels between test articles and respective vehicle controls were calculated and compared to pPD. […]

## Nc1ccc(N)cc1 [benchmark sensitizer, para-phenylenediamine]
  IL18 Maximum fold change vs vehicle control: 7.8 fold)
Listed as para-phenylenediamine (pPD)
  IL18 Maximum fold change vs vehicle control: significantly induced IL-18
